Laboratory results: US8574893B2, “Nucleic acid cleavage complex and method for using the same” (National Cheng Kung University, priority 2010, dated 2013)

Test system: pST3 test vector
Experiment: DNA cleavage test of the nucleic acid cleavage reagent in vitro
Assay type: biochemical
Method: First, the pST3 test vector of Test Example 1 is prepared. The abovementioned vector and the nucleic acid cleavage reagent (Cypate) are mixed in a molar ratio of 1:1000. […] Columns 5 and 6 of FIG. 5 show the position of the nucleic acid cleavage reagent (Cypate) in the gel.

## CC1(C)C(/C=C/C=C/C=C/C=C2/N(CCC(=O)O)c3ccc4ccccc4c3C2(C)C)=[N+](CCC(=O)[O-])c2ccc3ccccc3c21 [Cypate, cypate]
vector:Cypate molar ratio 1:1000, irradiation for 5 mins, FIG. 5 column 8
  cleavage of the plasmid to nicked open-circular plasmid (Form II plasmid): partially cleaved
vector:Cypate molar ratio 1:1000, irradiation for 10 mins, FIG. 5 column 10
  cleavage of the plasmid to nicked open-circular plasmid (Form II plasmid): completely cleaved
